Assay results published in ChEMBL document CHEMBL1795255, “Discovery and optimization of potent and selective benzonaphthyridinone analogs as small molecule mTOR inhibitors with improved mouse microsome stability” (Bioorg Med Chem Lett, 2011).
Values belong to the compound of their own block, whether it stands above or below them.

Key:
[1] = Inhibition of mTORC1
[2] = Inhibition of PI3K-dependent Akt phosphorylation at T308 residue in human PC3 cells; format: cell-based; settings: PC-3
[3] = target: Serine/threonine-protein kinase mTOR (Mus musculus, UniProt Q9JLN9); assay: Inhibition of mTOR-dependent S6K phosphorylation at T389 residue in MEF cells; format: cell-based
[4] = (§1) Cmax in po dosed mouse; format: ADME, organism-based; parameters: route oral; settings: in vivo
[5] = target: T1, Serine/threonine-protein kinase mTOR (Homo sapiens, UniProt P42345); assay: Inhibition of mTOR-dependent S6K phosphorylation at T389 residue in lung at 20 mg/kg after 6 hrs by in vivo pharmacodynamic study; format: organism-based; parameters: dose 20 mg/kg
[6] = AUC (0 to infinity) in po dosed mouse; format: ADME, organism-based; parameters: route oral, time infinity; settings: plasma
[7] = Half life in iv dosed mouse; format: ADME, organism-based; settings: in vivo
CYP3A4 = CYP3A4 (Homo sapiens, UniProt P08684); assay: Inhibition of CYP3A4 at 10 uM; format: ADME
Chain of CYP3A4 (P08684 whole entry): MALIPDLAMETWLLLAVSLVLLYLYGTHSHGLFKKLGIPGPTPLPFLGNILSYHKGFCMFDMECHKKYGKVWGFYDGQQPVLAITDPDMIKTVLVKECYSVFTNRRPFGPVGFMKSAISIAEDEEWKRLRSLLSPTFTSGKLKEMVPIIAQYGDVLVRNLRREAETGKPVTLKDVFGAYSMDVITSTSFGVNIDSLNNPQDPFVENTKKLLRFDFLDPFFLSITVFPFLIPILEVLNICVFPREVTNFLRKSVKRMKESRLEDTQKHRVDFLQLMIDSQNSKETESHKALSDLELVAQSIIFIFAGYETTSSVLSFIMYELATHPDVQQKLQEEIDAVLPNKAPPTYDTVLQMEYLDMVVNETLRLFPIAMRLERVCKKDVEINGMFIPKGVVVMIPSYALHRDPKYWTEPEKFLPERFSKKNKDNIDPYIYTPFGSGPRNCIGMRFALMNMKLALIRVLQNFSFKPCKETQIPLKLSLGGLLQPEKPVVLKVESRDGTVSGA

[8] = target: T1, Serine/threonine-protein kinase mTOR; assay: Inhibition of mTOR-dependent AKT phosphorylation at S473 residue in lung at 20 mg/kg after 6 hrs by in vivo pharmacodynamic study; format: organism-based; parameters: dose 20 mg/kg
[9] = target: T1, Serine/threonine-protein kinase mTOR; assay: Inhibition of mTOR
[10] = target: Phosphatidylinositol 4-phosphate 3-kinase C2 domain-containing subunit alpha (Homo sapiens, UniProt O00443); assay: Inhibition of PI3K C2alpha
Chain of Phosphatidylinositol 4-phosphate 3-kinase C2 domain-containing subunit alpha (O00443 whole entry, the tested form may be a part): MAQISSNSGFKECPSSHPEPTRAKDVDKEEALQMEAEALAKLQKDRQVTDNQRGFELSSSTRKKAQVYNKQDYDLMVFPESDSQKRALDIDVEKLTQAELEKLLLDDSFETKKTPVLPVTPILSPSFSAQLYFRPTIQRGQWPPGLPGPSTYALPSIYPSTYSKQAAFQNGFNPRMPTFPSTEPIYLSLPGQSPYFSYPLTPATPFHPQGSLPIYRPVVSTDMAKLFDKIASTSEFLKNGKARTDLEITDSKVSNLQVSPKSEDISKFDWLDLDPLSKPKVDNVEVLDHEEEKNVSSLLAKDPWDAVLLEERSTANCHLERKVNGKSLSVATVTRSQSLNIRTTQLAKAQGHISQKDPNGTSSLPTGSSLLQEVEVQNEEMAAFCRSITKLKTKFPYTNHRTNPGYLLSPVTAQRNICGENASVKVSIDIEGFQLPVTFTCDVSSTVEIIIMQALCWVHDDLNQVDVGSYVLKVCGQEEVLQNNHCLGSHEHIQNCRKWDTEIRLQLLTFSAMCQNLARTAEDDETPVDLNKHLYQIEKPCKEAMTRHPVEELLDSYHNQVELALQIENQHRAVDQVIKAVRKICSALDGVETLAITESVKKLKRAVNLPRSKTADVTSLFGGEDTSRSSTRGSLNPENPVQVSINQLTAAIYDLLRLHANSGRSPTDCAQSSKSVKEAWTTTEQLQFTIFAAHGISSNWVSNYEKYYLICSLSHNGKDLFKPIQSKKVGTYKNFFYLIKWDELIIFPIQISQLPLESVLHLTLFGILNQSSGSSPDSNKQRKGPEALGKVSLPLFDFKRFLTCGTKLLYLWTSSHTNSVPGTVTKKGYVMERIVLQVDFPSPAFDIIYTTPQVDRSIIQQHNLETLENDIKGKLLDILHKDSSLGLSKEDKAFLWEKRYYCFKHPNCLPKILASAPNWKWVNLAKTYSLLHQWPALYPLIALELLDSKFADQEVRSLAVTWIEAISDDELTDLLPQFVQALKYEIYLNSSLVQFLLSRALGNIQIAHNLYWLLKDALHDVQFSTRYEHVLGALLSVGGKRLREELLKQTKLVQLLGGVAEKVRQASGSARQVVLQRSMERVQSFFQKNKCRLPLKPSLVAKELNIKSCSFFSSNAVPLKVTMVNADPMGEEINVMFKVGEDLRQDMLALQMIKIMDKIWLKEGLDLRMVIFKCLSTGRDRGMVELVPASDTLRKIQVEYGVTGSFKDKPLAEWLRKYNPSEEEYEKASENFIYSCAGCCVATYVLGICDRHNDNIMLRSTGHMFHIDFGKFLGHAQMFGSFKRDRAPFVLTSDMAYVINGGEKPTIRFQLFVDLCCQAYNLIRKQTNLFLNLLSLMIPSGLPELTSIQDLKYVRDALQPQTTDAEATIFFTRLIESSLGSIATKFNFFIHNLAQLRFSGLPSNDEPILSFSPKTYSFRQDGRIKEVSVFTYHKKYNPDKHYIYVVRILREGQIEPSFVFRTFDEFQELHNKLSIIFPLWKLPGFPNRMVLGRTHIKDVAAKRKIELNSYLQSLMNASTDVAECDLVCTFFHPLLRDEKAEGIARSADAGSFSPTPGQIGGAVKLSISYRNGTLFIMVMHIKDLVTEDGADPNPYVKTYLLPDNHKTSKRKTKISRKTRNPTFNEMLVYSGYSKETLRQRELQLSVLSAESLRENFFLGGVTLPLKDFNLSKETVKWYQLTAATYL

[11] = (§2) Tmax in po dosed mouse; format: ADME, organism-based; settings: in vivo
[12] = target: T1, Serine/threonine-protein kinase mTOR; assay: Inhibition of mTOR-dependent AKT phosphorylation at S473 residue in liver at 20 mg/kg after 6 hrs by in vivo pharmacodynamic study; format: organism-based; parameters: dose 20 mg/kg
[13] = Clearance in iv dosed mouse; format: ADME, organism-based; settings: in vivo
[14] = target: Phosphatidylinositol 4-phosphate 3-kinase C2 domain-containing subunit beta (Homo sapiens, UniProt O00750); assay: Inhibition of PI3K C2beta
[15] = (§3) Volume of distribution at steady state in iv dosed mouse; format: ADME, organism-based; settings: in vivo, read-out: Vdss
[16] = target: Phosphatidylinositol 4-kinase beta (Homo sapiens, UniProt Q9UBF8); assay: Inhibition of PI4K beta
Chain of Phosphatidylinositol 4-kinase beta (Q9UBF8 whole entry): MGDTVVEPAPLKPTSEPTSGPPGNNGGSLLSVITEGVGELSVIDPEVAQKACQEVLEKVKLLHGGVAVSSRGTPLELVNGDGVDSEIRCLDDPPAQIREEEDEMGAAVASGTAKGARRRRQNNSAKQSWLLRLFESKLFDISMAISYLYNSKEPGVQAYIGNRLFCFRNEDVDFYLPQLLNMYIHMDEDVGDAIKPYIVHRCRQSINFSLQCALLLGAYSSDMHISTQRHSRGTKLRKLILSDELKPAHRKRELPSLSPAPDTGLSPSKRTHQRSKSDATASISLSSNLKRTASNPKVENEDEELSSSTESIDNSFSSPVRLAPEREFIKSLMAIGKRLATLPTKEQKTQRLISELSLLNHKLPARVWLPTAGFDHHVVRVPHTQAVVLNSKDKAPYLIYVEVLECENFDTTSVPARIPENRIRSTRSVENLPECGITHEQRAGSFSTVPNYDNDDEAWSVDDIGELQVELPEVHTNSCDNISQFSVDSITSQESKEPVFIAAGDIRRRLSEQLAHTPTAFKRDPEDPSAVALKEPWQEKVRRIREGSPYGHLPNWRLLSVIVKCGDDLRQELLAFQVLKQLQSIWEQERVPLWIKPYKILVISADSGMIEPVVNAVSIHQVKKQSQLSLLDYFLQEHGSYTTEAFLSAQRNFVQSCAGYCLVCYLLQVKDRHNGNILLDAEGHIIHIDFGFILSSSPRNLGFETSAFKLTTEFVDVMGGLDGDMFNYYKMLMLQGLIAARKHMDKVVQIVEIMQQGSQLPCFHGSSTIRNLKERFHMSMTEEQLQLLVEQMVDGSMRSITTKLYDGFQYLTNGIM

[17] = (§4) Cmax in iv dosed mouse; format: ADME, organism-based; parameters: route intravenous; settings: in vivo
[18] = target: Phosphatidylinositol 4-kinase alpha (Homo sapiens, UniProt P42356); assay: Inhibition of PI4K alpha
Chain of Phosphatidylinositol 4-kinase alpha (P42356 whole entry): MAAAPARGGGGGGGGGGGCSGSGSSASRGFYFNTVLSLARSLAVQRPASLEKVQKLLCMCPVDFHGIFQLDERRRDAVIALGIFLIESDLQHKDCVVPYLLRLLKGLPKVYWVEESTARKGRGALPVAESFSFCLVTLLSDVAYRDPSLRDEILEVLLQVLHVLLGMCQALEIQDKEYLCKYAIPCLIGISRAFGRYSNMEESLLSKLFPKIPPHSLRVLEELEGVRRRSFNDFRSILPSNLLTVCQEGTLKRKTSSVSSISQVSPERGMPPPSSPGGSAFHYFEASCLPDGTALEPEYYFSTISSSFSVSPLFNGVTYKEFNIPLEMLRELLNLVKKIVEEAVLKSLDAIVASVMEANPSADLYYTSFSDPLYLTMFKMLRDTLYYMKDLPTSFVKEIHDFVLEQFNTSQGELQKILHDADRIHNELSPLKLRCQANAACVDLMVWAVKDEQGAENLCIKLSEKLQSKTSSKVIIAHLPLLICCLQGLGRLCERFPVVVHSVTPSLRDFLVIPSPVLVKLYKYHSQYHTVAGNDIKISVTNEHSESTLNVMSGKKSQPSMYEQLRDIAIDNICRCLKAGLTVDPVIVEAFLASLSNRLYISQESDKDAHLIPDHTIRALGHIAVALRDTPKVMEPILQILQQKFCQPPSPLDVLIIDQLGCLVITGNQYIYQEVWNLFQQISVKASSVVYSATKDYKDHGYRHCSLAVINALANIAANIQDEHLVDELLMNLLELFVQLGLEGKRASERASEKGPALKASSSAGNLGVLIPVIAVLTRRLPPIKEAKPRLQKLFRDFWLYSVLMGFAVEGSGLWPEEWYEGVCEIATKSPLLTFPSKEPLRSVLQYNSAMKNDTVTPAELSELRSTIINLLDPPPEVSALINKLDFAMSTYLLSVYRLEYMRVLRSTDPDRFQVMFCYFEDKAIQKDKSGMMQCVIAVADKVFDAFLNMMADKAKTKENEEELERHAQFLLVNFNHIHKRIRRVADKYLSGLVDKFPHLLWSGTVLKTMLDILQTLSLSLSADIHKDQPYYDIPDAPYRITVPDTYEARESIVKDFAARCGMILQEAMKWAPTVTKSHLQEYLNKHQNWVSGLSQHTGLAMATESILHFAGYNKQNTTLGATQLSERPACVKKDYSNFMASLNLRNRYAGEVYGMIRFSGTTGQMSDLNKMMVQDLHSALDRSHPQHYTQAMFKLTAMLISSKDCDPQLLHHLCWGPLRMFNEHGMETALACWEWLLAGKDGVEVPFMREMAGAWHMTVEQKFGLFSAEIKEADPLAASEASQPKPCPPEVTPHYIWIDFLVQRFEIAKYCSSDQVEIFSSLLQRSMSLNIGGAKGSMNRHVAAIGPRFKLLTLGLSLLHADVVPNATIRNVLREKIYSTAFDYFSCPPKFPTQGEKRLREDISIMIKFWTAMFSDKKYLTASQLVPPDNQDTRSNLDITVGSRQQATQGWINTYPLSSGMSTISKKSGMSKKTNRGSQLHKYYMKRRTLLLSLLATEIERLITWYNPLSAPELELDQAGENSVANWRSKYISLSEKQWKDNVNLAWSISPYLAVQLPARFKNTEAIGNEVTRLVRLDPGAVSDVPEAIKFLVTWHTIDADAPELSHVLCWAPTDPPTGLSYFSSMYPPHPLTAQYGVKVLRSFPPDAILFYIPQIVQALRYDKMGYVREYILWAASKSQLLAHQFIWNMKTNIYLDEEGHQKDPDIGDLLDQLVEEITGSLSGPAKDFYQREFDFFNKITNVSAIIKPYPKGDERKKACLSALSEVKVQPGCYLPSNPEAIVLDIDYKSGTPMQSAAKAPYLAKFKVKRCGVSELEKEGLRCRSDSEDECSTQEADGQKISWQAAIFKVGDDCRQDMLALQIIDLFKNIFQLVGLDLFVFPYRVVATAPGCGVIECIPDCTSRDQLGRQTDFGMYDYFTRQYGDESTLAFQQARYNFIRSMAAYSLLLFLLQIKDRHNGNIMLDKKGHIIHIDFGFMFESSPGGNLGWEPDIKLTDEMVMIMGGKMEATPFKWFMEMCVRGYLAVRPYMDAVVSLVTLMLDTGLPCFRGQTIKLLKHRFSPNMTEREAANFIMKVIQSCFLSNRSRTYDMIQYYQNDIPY

[19] = target: Phosphatidylinositol 3-kinase catalytic subunit type 3 (Homo sapiens, UniProt Q8NEB9); assay: Inhibition of human VPS34
[20] = AUC (0 to infinity) in iv dosed mouse; format: ADME, organism-based; parameters: time infinity, route intravenous; settings: plasma
[21] = Oral bioavailability in mouse; format: ADME, organism-based; settings: in vivo
[22] = Metabolic stability in mouse microsomes in presence of NADPH; format: ADME, Microsome; settings: read-out: Stability
[23] = target: T1, Serine/threonine-protein kinase mTOR; assay: Inhibition of mTOR-dependent S6K phosphorylation at T389 residue in liver at 20 mg/kg after 6 hrs by in vivo pharmacodynamic study; format: organism-based; parameters: dose 20 mg/kg
[24] = target: PI3-kinase p110-alpha/p85-alpha (Homo sapiens, UniProt P42336); assay: Inhibition of P110alpha/p85alpha; format: protein-complex assay
Mus musculus [25] = assay: as §1; format: ADME, organism-based; parameters: route oral; settings: in vivo
Mus musculus [26] = assay: as §2; format: ADME, organism-based; settings: in vivo
Mus musculus [27] = assay: as §3; format: ADME, organism-based; settings: in vivo
Mus musculus [28] = assay: as §4; format: ADME, organism-based; parameters: route intravenous; settings: in vivo

SMILES: NC(=O)c1ccc(-c2ccc(-n3c(=O)ccc4cnc5ccc(-c6cnc7ccccc7c6)cc5c43)cc2C(F)(F)F)cc1
IC50 [1]: 56.3 nM
EC50 [2]: > 300 nM
EC50 [3]: 25 nM

SMILES: Cc1cc(-n2c(=O)ccc3cnc4ccc(-c5cnn(C)c5)cc4c32)ccc1-c1ccc(C(=O)NC2CCN(C)CC2)cc1
IC50 [1]: 283 nM
EC50 [2]: > 1250 nM
EC50 [3]: 150 nM

SMILES: Cc1cc(-n2c(=O)ccc3cnc4ccc(-c5ccc(N)nc5)cc4c32)ccc1-c1ccc(C(=O)NC2CCN(C)CC2)cc1
IC50 [1]: 39.8 nM
EC50 [2]: > 1250 nM
EC50 [3]: 50 nM

SMILES: COC(=O)c1ccc(-c2ccc(-n3c(=O)ccc4cnc5ccc(-c6cnc7ccccc7c6)cc5c43)cc2C(F)(F)F)cc1
IC50 [1]: 299 nM
EC50 [2]: > 300 nM
EC50 [3]: 200 nM

SMILES: Cc1cc(-n2c(=O)ccc3cnc4ccccc4c32)ccc1-c1ccc(C(=O)NC2CCN(C)CC2)cc1
IC50 [1]: > 3000 nM
EC50 [2]: > 1250 nM
EC50 [3]: > 1000 nM

SMILES: O=c1ccc2cnc3ccc(-c4cnc5ccccc5c4)cc3c2n1-c1ccc(-c2ccc(COC3CCCCO3)cc2)c(C(F)(F)F)c1 (stereo not drawn)
IC50 [1]: 188 nM
EC50 [2]: > 300 nM
EC50 [3]: 25 nM

SMILES: CCC(=O)N1CCN(c2ccc(-n3c(=O)ccc4cnc5ccc(-c6cnc7ccccc7c6)cc5c43)cc2C(F)(F)F)CC1 [TORIN1]
Cmax (Mus musculus [25]): 223 ng/mL
AUC(0-inf) [6]: 396 ng·h/mL
Tmax (Mus musculus [26]): 0.25 h
Vdss (Mus musculus [27]): 0.59 L/kg
Cmax (Mus musculus [28]): 2757 ng/mL
AUC(0-inf) [20]: 720 ng·h/mL

SMILES: CN1CCC(NC(=O)c2ccc(-c3ccc(-n4c(=O)ccc5cnc6ccc(-c7cnc(N)nc7)cc6c54)cc3C(F)(F)F)cc2)CC1
IC50 [1]: 43.2 nM
EC50 [2]: 1000 nM
EC50 [3]: 10 nM

More lines, in order of falling IC50 [1], values ahead:

IC50 [1]: 38.1 nM
EC50 [2]: > 1250 nM
EC50 [3]: 150 nM
SMILES: Cc1cc(-n2c(=O)ccc3cnc4ccc(-c5cn[nH]c5)cc4c32)ccc1-c1ccc(C(=O)NC2CCN(C)CC2)cc1

IC50 [1]: 22.9 nM
EC50 [2]: > 300 nM
EC50 [3]: 20 nM
SMILES: O=C(O)c1ccc(-c2ccc(-n3c(=O)ccc4cnc5ccc(-c6cnc7ccccc7c6)cc5c43)cc2C(F)(F)F)cc1

Cmax [4]: 191 ng/mL
inhibition [5]: 80%
AUC(0-inf) [6]: 1410 ng·h/mL
half-life [7]: 3.61 h
inhibition at 10 µM (CYP3A4): 61%
inhibition [8]: 80%
IC50 [9]: 3.01 nM
IC50 [10]: 1110 nM
Tmax [11]: 4 h
inhibition [12]: 80%
IC50 [1]: 21.7 nM
clearance [13]: 11.9 mL/min/kg
IC50 [14]: 437 nM
Vd [15]: 1.95 L/kg
IC50 [16]: 3440 nM
Cmax [17]: 1410 ng/mL
IC50 [18]: > 10000 nM
IC50 [19]: 170 nM
EC50 [3]: 5 nM
AUC(0-inf) [20]: 1390 ng·h/mL
bioavailability [21]: 10.1%
half-life [22]: 0.767 h
inhibition [23]: 80%
IC50 [24]: 922 nM
SMILES: CN1CCC(NC(=O)c2ccc(-c3ccc(-n4c(=O)ccc5cnc6ccc(-c7cnc8ccccc8c7)cc6c54)cc3C(F)(F)F)cc2)CC1

IC50 [1]: 18.9 nM
EC50 [2]: 1000 nM
EC50 [3]: 25 nM
SMILES: Cc1cc(-n2c(=O)ccc3cnc4ccc(-c5cnc6[nH]ccc6c5)cc4c32)ccc1-c1ccc(C(=O)NC2CCN(C)CC2)cc1

IC50 [1]: 17.3 nM
EC50 [2]: > 300 nM
EC50 [3]: 30 nM
SMILES: O=c1ccc2cnc3ccc(-c4cnc5ccccc5c4)cc3c2n1-c1ccc(-c2ccc(CO)cc2)c(C(F)(F)F)c1

Cmax [4]: 115 ng/mL
AUC(0-inf) [6]: 391 ng·h/mL
half-life [7]: 1.85 h
inhibition at 10 µM (CYP3A4): 34%
Tmax [11]: 1 h
IC50 [1]: 14.5 nM
EC50 [2]: 1000 nM
clearance [13]: 22.6 mL/min/kg
Vd [15]: 1.82 L/kg
Cmax [17]: 1050 ng/mL
EC50 [3]: 1 nM
AUC(0-inf) [20]: 737 ng·h/mL
bioavailability [21]: 5.4%
half-life [22]: 0.7 h
SMILES: Cc1cc(-n2c(=O)ccc3cnc4ccc(-c5cnc6ccccc6c5)cc4c32)ccc1-c1ccc(C(=O)NC2CCN(C)CC2)cc1

IC50 [1]: 14.1 nM
EC50 [2]: 1000 nM
EC50 [3]: 10 nM
SMILES: CN1CCC(NC(=O)c2ccc(-c3ccc(-n4c(=O)ccc5cnc6ccc(-c7cn[nH]c7)cc6c54)cc3C(F)(F)F)cc2)CC1

IC50 [1]: 10.2 nM
EC50 [2]: > 300 nM
EC50 [3]: 15 nM
SMILES: CNC(=O)c1ccc(-c2ccc(-n3c(=O)ccc4cnc5ccc(-c6cnc7ccccc7c6)cc5c43)cc2C(F)(F)F)cc1
